Reference: patent publication US3977944A, “Enzyme-kinetic determination of the concentration of a substrate” (Eppendorf Geratebau Netheler & Hinz GmbH, priority 1973, dated 1976)

How the values were obtained:
uricase [1] = target: T1, uricase (Sus scrofa, UniProt P16164); assay: Kinetic uric acid determination with uricase, average inhibition (Table 4); assay type: biochemical
T1 sequence (P16164 2-304 limits assumed): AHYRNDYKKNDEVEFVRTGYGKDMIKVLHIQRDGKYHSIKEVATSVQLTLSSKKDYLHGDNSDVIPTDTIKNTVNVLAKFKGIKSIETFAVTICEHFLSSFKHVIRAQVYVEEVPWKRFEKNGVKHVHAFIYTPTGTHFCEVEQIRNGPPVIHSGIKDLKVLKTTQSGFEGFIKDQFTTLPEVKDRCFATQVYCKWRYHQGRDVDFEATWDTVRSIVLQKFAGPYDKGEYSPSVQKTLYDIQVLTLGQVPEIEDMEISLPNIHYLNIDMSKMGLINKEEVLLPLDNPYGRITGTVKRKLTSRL
Text: (§1) The exclusion of the interference of foreign inhibitors that can be achieved by the invention is illustrated by the measurements obtained for two different enzymes and two different inhibitors each, which are listed in the following two tables.

glucose dehydrogenase [2] = target: T2, glucose dehydrogenase (Priestia megaterium, UniProt P07999); assay: Kinetic glucose determination with glucose-dehydrogenase, Example 5 (95 mU enzyme); assay type: biochemical
T2 sequence (P07999 whole entry): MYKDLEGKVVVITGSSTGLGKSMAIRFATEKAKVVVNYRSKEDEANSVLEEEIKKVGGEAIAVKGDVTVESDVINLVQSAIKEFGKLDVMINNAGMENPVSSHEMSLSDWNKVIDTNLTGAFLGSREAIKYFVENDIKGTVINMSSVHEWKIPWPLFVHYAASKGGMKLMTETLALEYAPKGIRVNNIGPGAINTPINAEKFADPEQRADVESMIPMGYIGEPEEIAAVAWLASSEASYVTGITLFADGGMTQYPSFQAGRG
Text: (§2) The following test mixture was used:
90 mmoles phosphate buffer pH = 7.6
40 mmoles sulfosalicylic acid
95 mU glucose dehydrogenase

[3] = target: uricase (prepared from swine liver) (Sus scrofa, UniProt P16164)
Procedure: Recording is started 20 seconds after initiation of the reaction: paper speed 2 cm/min, spread 20 cm for E=0-1. With an angle measuring means, the angle α formed with the time axis is measured at the beginning of each recording. The reciprocals of tan α are plotted as ordinates against the corresponding reciprocal uric acid concentrations (Lineweaver-Burk diagram). The calibration straight line is drawn through the points obtained with and without the addition of potassium thiocyanate.
For the determination of the apparent Michaelis constant, the reciprocals of the tangent α are plotted as ordinates, and the reciprocal molar substrate concentrations in the test mixture as abscissae. The apparent Michaelis constant is found as a negative reciprocal of the abscissae intersections of the straight lines of regression (insertion of suitable small values for 1/cS followed by graphic evaluation).

glucose dehydrogenase [4] = target: T2, glucose dehydrogenase; conditions: Lineweaver-Burk diagram, FIG. 1; 330 and 500 mmoles KSCN per liter of test solution
Procedure: The reaction was started by the admixture of 20 μl of 200 mmoles/l NAD^+, and recording was begun 10 seconds later: paper feed 5 cm/min, spread 20 cm for E = 0 - 1.
For the determination of the angle α with the axis of time the virtually linear initial area of the recording was evaluated; for the determination of the type of inhibitor, the reciprocals of tangent α (identical with the initial rate, for practical purposes) were plotted as ordinates and the reciprocals of the millimolar glucose concentrations used in the test were plotted as abscissae (Lineweaver-Burk diagram).
20 μl of specimen was incubated in the cell at 25°C with 500 μl of stabilized buffer-enzyme-inhibitor mixture and the reaction was started by the admixture of 20 μl NAD^+ (150 mg/ml H2 O). 20 seconds after the start of the reaction, recording was performed at a paper feed of 5 cm/min at Hg 366 nm, and the layer thickness 1.00 cm, and the angle α was determined 20 seconds after the start of the reaction in each case.

GlucDH = GlucDH (Priestia megaterium, UniProt P07999); assay: Kinetic glucose determination with GlucDH, average inhibition (Table 3); assay type: biochemical
Sequence of GlucDH (P07999 whole entry): as above
Text: as §1

glucose dehydrogenase [5] = target: T2, glucose dehydrogenase; assay: Kinetic glucose determination with glucose-dehydrogenase, Example 4 (1.8 U enzyme); assay type: biochemical
Text: as §2
0.12 mole phosphate buffer pH = 7.6
40 millimoles sulfosalicylic acid
0.86 millimole - 2.59 millimoles glucose
1.8 U glucose-dehydrogenase

uricase [6] = target: T1, uricase; assay: Inhibition of Uricase, Example 6; assay type: biochemical
Text: as §2
96 mmoles borate buffer pH = 9.5
114 - 7.6 μmoles uric acid

[7] = target: uricase obtained from swine liver (Sus scrofa, UniProt P16164); conditions: read-out: Michaelis constant of uricase, Tiffany et al., Anal. Chem. 45, 1716-23 (1973); cited from earlier work
[8] = 38.5 mmoles KSCN, glucose [S] 0.86 mmoles
[9] = 38.5 mmoles KSCN, glucose [S] 1.29 mmoles
[10] = 38.5 mmoles KSCN, glucose [S] 1.72 mmoles
[11] = 38.5 mmoles KSCN, glucose [S] 2.59 mmoles
[12] = 38.5 mmoles KSCN, glucose [S] 3.45 mmoles
[13] = 0.31 mole KSCN, glucose [S] 0.86 mmoles
[14] = 0.31 mole KSCN, glucose [S] 1.29 mmoles
[15] = 0.31 mole KSCN, glucose [S] 1.72 mmoles
[16] = 0.31 mole KSCN, glucose [S] 2.59 mmoles
[17] = 14 nmoles phloretin, glucose [S] 0.86 mmoles
[18] = 14 nmoles phloretin, glucose [S] 1.29 mmoles
[19] = 14 nmoles phloretin, glucose [S] 1.72 mmoles
[20] = 14 nmoles phloretin, glucose [S] 2.59 mmoles
[21] = 14 nmoles phloretin, glucose [S] 3.45 mmoles
[22] = 1.4 nmoles phloretin, glucose [S] 0.86 mmoles
[23] = 1.4 nmoles phloretin, glucose [S] 1.29 mmoles
[24] = 1.4 nmoles phloretin, glucose [S] 1.72 mmoles
[25] = 1.4 nmoles phloretin, glucose [S] 2.59 mmoles
[26] = 0.02 mmole xanthine, [S] 7.6 μmole
[27] = 0.02 mmole xanthine, [S] 38 μmole
[28] = 0.02 mmole xanthine, [S] 114 μmole

N#CS [KSCN, Potassium thiocyanate]
Average inhibition in % (uricase [1]; KSCN 10 millimoles): 17% | Average inhibition in % (uricase [1]; KSCN 40 millimoles): 41% | Average inhibition in % (uricase [1]; KSCN 500 millimoles): 82% | % inh. (glucose dehydrogenase [2]; [8]): 17% | ΔE/min (glucose dehydrogenase [2]; [8]): 28.0 | % inh. (glucose dehydrogenase [2]; [9]): 18.8% | ΔE/min (glucose dehydrogenase [2]; [9]): 40.3 | % inh. (glucose dehydrogenase [2]; [10]): 21.69% | ΔE/min (glucose dehydrogenase [2]; [10]): 49.7 | % inh. (glucose dehydrogenase [2]; [11]): 8% | ΔE/min (glucose dehydrogenase [2]; [11]): 72.3 | % inh. (glucose dehydrogenase [2]; [12]): 17% | ΔE/min (glucose dehydrogenase [2]; [12]): 90 | apparent Michaelis constant ([3]; 687 mmoles per liter of test solution, uric acid as substrate, 25°C): 1 mmol/L | type of inhibitor ([3]; Lineweaver-Burk plot, same ordinate intersection): competitive inhibitor | type of inhibitor (glucose dehydrogenase [4]): competitive type of inhibitor | Average inhibition in % (GlucDH; KSCN 38.5 millimoles): 17% | Average inhibition in % (GlucDH; KSCN 310 millimoles): 78% | % inh. (glucose dehydrogenase [5]; [13]): 85.5% | ΔE/min (glucose dehydrogenase [5]; [13]): 4.5 | % inh. (glucose dehydrogenase [5]; [14]): 80.3% | ΔE/min (glucose dehydrogenase [5]; [14]): 8.0 | % inh. (glucose dehydrogenase [5]; [15]): 80.6% | ΔE/min (glucose dehydrogenase [5]; [15]): 10.5 | % inh. (glucose dehydrogenase [5]; [16]): 77.5% | ΔE/min (glucose dehydrogenase [5]; [16]): 17 | % inh. (uricase [6]; 0.5 mole KSCN, [S] 7.6 μmole): 86% | ΔE/min (uricase [6]; 0.5 mole KSCN, [S] 7.6 μmole): 3.3 | % inh. (uricase [6]; 0.5 mole KSCN, [S] 38 μmole): 81% | ΔE/min (uricase [6]; 0.5 mole KSCN, [S] 38 μmole): 16.3 | % inh. (uricase [6]; 0.5 mole KSCN, [S] 114 μmole): 73% | ΔE/min (uricase [6]; 0.5 mole KSCN, [S] 114 μmole): 46

O=C(CCc1ccc(O)cc1)c1c(O)cc(O)cc1O [Phloretin, phloretin]
% inh. (glucose dehydrogenase [2]; [17]): 74% | ΔE/min (glucose dehydrogenase [2]; [17]): 8.7 | % inh. (glucose dehydrogenase [2]; [18]): 77% | ΔE/min (glucose dehydrogenase [2]; [18]): 11.3 | % inh. (glucose dehydrogenase [2]; [19]): 78% | ΔE/min (glucose dehydrogenase [2]; [19]): 14.0 | % inh. (glucose dehydrogenase [2]; [20]): 76% | ΔE/min (glucose dehydrogenase [2]; [20]): 20.3 | % inh. (glucose dehydrogenase [2]; [21]): 75% | ΔE/min (glucose dehydrogenase [2]; [21]): 26.7 | Average inhibition in % (GlucDH; Phloretin 1.4 micromoles): 20% | Average inhibition in % (GlucDH; Phloretin 14 micromoles): 76% | % inh. (glucose dehydrogenase [5]; [22]): 22.8% | ΔE/min (glucose dehydrogenase [5]; [22]): 24.0 | % inh. (glucose dehydrogenase [5]; [23]): 26.0% | ΔE/min (glucose dehydrogenase [5]; [23]): 30.0 | % inh. (glucose dehydrogenase [5]; [24]): 15.8% | ΔE/min (glucose dehydrogenase [5]; [24]): 45.5 | % inh. (glucose dehydrogenase [5]; [25]): 17.1% | ΔE/min (glucose dehydrogenase [5]; [25]): 62.5

O=c1[nH]c(=O)c2[nH]cnc2[nH]1 [Xanthine, xanthine]
Average inhibition in % (uricase [1]; Xanthine 20 micromoles): 34% | Average inhibition in % (uricase [1]; Xanthine 40 micromoles): 60% | Average inhibition in % (uricase [1]; Xanthine 80 micromoles): 76% | % inh. (uricase [6]; [26]): 49% | ΔE/min (uricase [6]; [26]): 14 | % inh. (uricase [6]; [27]): 25% | ΔE/min (uricase [6]; [27]): 66 | % inh. (uricase [6]; [28]): 26% | ΔE/min (uricase [6]; [28]): 127

O=c1[nH]c(=O)c2[nH]c(=O)[nH]c2[nH]1 [uric acid]
Km [7]: 17 µM
